In article PMC8802890, “Identification of U937^JAK3-M511I Acute Myeloid Leukemia Cells as a Sensitive Model to JAK3 Inhibitor” (Frontiers in Oncology, 2022):

How the values were obtained:
Daudi = assay: CCK-8 anti-proliferation, Daudi; details: read-out: IC50 Cell line Daudi; CCK-8, 72 h; mean ± SD
U937 AML cells = assay: CCK-8 anti-proliferation, U937; details: for IC50: Homo sapiens, U-937, 72 h, read-out: IC50 Cell line U937
Ba/F3 = assay: CCK-8 anti-proliferation, parental Ba/F3; type: cell-based, Murine; details: Mus musculus, BaF3; parental cells, with IL-3; CCK-8, 72 h; mean ± SD
Ba/F3-TEL-JAK1 = assay: CCK-8 anti-proliferation, Ba/F3-TEL-JAK1; type: cell-based, Murine; details: Mus musculus, CCK-8, 72 h, mean ± SD
Ba/F3-TEL-JAK2 = assay: CCK-8 anti-proliferation, Ba/F3-TEL-JAK2; type: cell-based, Murine; details: Mus musculus; CCK-8, 72 h; mean ± SD
OCI-LY3 = assay: CCK-8 anti-proliferation, OCI-LY3; details: read-out: IC50 Cell line OCI-LY3; CCK-8, 72 h; mean ± SD
Jurkat = assay: CCK-8 anti-proliferation, Jurkat; details: read-out: IC50 Cell line Jurkat; CCK-8, 72 h; mean ± SD
HL-60 = assay: CCK-8 anti-proliferation, HL-60; details: read-out: IC50 Cell line HL-60; CCK-8, 72 h; mean ± SD
MOLT-4 = assay: CCK-8 anti-proliferation, MOLT-4; details: read-out: IC50 Cell line MOLT-4; CCK-8, 72 h; mean ± SD
Ba/F3-JAK3 (M511I) = assay: CCK-8 anti-proliferation, Ba/F3-JAK3 (M511I); type: cell-based, Murine; details: Mus musculus; CCK-8, 72 h; mean ± SD
MV4-11 = assay: CCK-8 anti-proliferation, MV4-11; details: read-out: IC50 Cell line MV4-11; CCK-8, 72 h; mean ± SD
JAK3 = biological target: T1, JAK3 (Homo sapiens, UniProt P52333); assay: Z'-Lyte kinase assay, JAK3; type: biochemical
T1 construct: purchased Invitrogen (Waltham, MA, USA)
T1 sequence (P52333 1-1124): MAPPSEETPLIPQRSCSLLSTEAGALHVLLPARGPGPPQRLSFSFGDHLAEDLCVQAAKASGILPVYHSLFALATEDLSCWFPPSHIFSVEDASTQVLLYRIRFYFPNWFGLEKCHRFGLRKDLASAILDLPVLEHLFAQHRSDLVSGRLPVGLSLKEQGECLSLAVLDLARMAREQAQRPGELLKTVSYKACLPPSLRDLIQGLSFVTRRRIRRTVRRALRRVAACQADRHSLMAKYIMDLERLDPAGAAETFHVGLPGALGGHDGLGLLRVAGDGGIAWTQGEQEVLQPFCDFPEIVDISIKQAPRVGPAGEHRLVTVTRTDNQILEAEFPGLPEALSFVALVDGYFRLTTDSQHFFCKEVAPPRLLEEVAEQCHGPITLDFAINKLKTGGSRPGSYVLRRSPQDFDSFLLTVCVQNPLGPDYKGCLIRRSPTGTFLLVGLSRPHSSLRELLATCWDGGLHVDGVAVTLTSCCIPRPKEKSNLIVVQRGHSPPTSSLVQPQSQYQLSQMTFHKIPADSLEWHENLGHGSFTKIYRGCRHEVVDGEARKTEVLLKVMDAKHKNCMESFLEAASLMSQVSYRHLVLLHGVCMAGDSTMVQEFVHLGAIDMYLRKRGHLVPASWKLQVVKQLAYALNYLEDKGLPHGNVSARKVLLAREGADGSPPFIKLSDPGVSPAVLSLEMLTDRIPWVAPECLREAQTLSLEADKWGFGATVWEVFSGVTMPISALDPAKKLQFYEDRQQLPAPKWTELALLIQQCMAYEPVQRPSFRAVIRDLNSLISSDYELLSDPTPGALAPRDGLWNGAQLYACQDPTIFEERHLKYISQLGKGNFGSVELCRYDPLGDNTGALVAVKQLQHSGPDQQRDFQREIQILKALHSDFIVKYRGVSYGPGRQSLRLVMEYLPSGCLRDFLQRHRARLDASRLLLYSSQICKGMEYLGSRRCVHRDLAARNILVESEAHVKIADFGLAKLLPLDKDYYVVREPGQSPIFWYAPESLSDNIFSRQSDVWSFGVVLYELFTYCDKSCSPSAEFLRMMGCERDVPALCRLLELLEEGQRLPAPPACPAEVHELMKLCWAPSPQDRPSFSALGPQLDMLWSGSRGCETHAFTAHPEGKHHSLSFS

JAK1 = biological target: T2, JAK1 (Homo sapiens, UniProt P23458); assay: Z'-Lyte kinase assay, JAK1; type: biochemical
T2 construct: purchased Invitrogen (Waltham, MA, USA)

[1] = tested on: JAK3-STAT3/5 signal pathway in Ba/F3-JAK3 M511I cell line; assay: Western blotting of JAK3-STAT3/5 signal pathway, Ba/F3-JAK3 M511I; type: cell-based, Murine
Source text: Murine Ba/F3 cells were purchased from DSMZ (Deutsche Sammlung von Mikroorganismen und Zellkulturen). Ba/F3 cell lines stably expressing JAK1 and JAK2 were self-established through electroporation of pCDNA3.1-TEL plasmids. JAK3 (M511I) was produced from pCDNA3.1 plasmids using the Amaxa Cell Line Nucleofector Kit V (Lonza, Cologne, Germany). Stable cell lines were selected by G418 (Merck, NJ, USA) and subsequent withdrawal of IL-3 (R&D, MN, USA). All Ba/F3 stable cell lines were confirmed by positive drug tests, DNA sequencing, and Western blotting (WB) analysis. Parental Ba/F3 cells were maintained in RPMI-1640 supplemented with 10% FBS (Biological Industries) and 1% penicillin-streptomycin (Biological Industries) and 10 ng/ml of IL-3, while all Ba/F3 stable cell lines were cultured in the same medium without IL-3.
Cells at a cell density of 8 × 10^5 cells/ml were treated with different concentrations of compounds or DMSO for the indicated time. The cells were then lysed with 1× SDS sample lysis buffer, as recommended by CST. […] The protein signals were detected with Amersham Imager 600 system (GE, Boston, MA, USA) using an ECL Western blotting detection kit (Thermo Fisher Scientific, Waltham, MA, USA).

OCI-LY3 cells = assay: Cell cycle analysis by flow cytometry, OCI-LY3; type: cell-based; details: PF-06651600 treatment
U937 cells [2] = assay: Cell cycle analysis by flow cytometry, U937; type: cell-based, human
[3] = tested on: JAK3-STAT3/5 signal pathway in U937 cells; assay: Western blotting of JAK3-STAT3/5 signal pathway, U937; type: cell-based, human
U937 cells [4] = assay: Apoptosis assay (7-AAD / Annexin V-PE flow cytometry), U937; type: cell-based, human; details: PF-06651600 treatment

T2 sequence (P23458 whole entry): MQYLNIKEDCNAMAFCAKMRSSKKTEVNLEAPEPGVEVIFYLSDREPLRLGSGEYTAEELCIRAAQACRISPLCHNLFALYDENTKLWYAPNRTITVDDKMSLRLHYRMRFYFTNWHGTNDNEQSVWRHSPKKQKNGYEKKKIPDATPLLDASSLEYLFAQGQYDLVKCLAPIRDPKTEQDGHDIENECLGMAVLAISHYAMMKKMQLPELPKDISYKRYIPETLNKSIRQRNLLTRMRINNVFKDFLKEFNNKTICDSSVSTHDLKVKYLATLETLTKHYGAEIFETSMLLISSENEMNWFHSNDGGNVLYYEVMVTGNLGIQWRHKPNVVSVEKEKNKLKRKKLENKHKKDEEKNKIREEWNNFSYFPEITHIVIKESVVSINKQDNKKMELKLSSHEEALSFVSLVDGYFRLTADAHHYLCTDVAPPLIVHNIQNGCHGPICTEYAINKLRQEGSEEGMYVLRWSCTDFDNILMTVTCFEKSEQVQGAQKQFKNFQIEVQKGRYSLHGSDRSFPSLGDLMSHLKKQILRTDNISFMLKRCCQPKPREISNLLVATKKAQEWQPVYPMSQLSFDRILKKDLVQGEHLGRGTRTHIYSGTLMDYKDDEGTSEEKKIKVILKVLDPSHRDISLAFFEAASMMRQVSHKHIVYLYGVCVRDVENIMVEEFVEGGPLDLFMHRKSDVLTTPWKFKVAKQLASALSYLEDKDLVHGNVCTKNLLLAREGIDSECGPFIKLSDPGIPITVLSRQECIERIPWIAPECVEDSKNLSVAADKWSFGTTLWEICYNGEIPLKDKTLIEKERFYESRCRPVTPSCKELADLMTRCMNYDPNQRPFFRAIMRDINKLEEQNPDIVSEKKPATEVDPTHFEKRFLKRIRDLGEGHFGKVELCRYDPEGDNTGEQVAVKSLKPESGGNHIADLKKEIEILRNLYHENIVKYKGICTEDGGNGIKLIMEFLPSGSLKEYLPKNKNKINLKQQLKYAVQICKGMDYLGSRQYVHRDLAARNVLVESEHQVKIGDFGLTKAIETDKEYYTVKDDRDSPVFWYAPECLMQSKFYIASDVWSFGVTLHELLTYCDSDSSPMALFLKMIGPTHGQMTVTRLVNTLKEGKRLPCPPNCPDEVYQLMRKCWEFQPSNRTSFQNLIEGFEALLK

For `NC(=O)c1cnc2[nH]ccc2c1N[C@@H]1[C@@H]2CC3C[C@H]1C[C@@](O)(C3)C2` [Peficitinib], the IC50 (Daudi) was 5.82 ± 0.15 µM, the IC50 (U937 AML cells) was 0.09 ± 0.02 µM and the IC50 (Ba/F3) was 1.56 ± 0.09 µM. For the same molecule, the IC50 (Ba/F3-TEL-JAK1) was 0.6 ± 0.08 µM, the IC50 (Ba/F3-TEL-JAK2) was 1.29 ± 0.09 µM and the IC50 (OCI-LY3) was 3.42 ± 0.01 µM. It also gave an IC50 (Jurkat) of 2.32 ± 0.82 µM, an IC50 (HL-60) of 4.93 ± 1.22 µM and an IC50 (MOLT-4) of 2.22 ± 0.08 µM. The IC50 (Ba/F3-JAK3 (M511I)) was 0.1 ± 0.05 µM and the IC50 (MV4-11) was 9.19 ± 0.98 µM.

`Cc1cnc(Nc2ccc(OCCN3CCCC3)cc2)nc1Nc1cccc(S(=O)(=O)NC(C)(C)C)c1` [Fedratinib] was tested, and the IC50 (Daudi) was 3.92 ± 0.21 µM, the “antiproliferative activity against U937 cells” value (shortened to “antiproliferative activity”) (U937 AML cells) was “micromolar IC50 values” and the IC50 (U937 AML cells) was 2.53 ± 0.17 µM. The IC50 (Ba/F3) was 3.47 ± 0.33 µM, the IC50 (Ba/F3-TEL-JAK1) was 1.96 ± 0.24 µM and the “JAK3 kinase inhibition” value (JAK3) was “weakly suppressed the activity of JAK3”. It also gave an IC50 (Ba/F3-TEL-JAK2) of 1.83 ± 0.06 µM, an IC50 (OCI-LY3) of 3.18 ± 0.13 µM and an IC50 (Jurkat) of 1.42 ± 0.32 µM. The IC50 (HL-60) was 2.44 ± 0.16 µM, the IC50 (MOLT-4) was 2.72 ± 0.54 µM and the IC50 (Ba/F3-JAK3 (M511I)) was 2.84 ± 0.39 µM. The IC50 (MV4-11) was greater than 10 µM.

In the case of `CC[C@@H]1CN(C(=O)NCC(F)(F)F)C[C@@H]1c1cnc2cnc3[nH]ccc3n12` [Upadacitinib], the IC50 (Daudi) is reported as greater than 10 µM, the IC50 (U937 AML cells) is reported as 0.25 ± 0.03 µM and the IC50 (Ba/F3) is reported as 0.9 ± 0.12 µM. The IC50 (Ba/F3-TEL-JAK1) was 0.075 ± 0.008 µM, the IC50 (Ba/F3-TEL-JAK2) was 0.18 ± 0.01 µM and the IC50 (OCI-LY3) was greater than 10 µM. It also gave an IC50 (Jurkat) greater than 10 µM, an IC50 (HL-60) greater than 10 µM and an IC50 (MOLT-4) greater than 10 µM. For the same molecule, the IC50 (Ba/F3-JAK3 (M511I)) was 0.098 ± 0.047 µM and the IC50 (MV4-11) was greater than 10 µM.

`O=C(Nc1nc2cccc(-c3ccc(CN4CCS(=O)(=O)CC4)cc3)n2n1)C1CC1` [Filgotinib] was tested, and the IC50 (Daudi) was greater than 10 µM, the “antiproliferative activity” value (U937 AML cells) was “almost totally inactive” and the IC50 (U937 AML cells) was greater than 10 µM. For the same molecule, the IC50 (Ba/F3) was greater than 10 µM, the IC50 (Ba/F3-TEL-JAK1) was greater than 10 µM and the “JAK3 kinase inhibition” value (JAK3) was “did not obviously suppress JAK3 kinase activity”. For the same molecule, the IC50 (Ba/F3-TEL-JAK2) was greater than 10 µM, the IC50 (OCI-LY3) was greater than 10 µM and the IC50 (Jurkat) was greater than 10 µM. The IC50 (HL-60) was greater than 10 µM, the IC50 (MOLT-4) was greater than 10 µM and the IC50 (Ba/F3-JAK3 (M511I)) was 7.19 ± 2.5 µM. The IC50 (MV4-11) was greater than 10 µM.

`N#CC[C@H](C1CCCC1)n1cc(-c2ncnc3[nH]ccc23)cn1` [Ruxolitinib] was tested, and the IC50 (Daudi) was greater than 10 µM, the “antiproliferative activity” value (U937 AML cells) was “sub-micromole antiproliferative activity” and the IC50 (U937 AML cells) was 0.7 ± 0.11 µM. For the same molecule, the “JAK3 kinase inhibition” value (JAK3) was “reasonable inhibition of JAK3”, the IC50 (OCI-LY3) was greater than 10 µM and the IC50 (Jurkat) was greater than 10 µM. For the same molecule, the IC50 (HL-60) was greater than 10 µM, the IC50 (MOLT-4) was greater than 10 µM and the IC50 (MV4-11) was greater than 10 µM.

For `C=CC(=O)N1C[C@H](Nc2ncnc3[nH]ccc23)CC[C@@H]1C` [PF-06651600, ritlecitinib], the “potency against JAK1 less than against JAK3” value (JAK1) was “approximately 3,000 fold”, the “downstream signaling factors of JAK3” value [1] was “inhibited the downstream signaling factors of JAK3” and the “phosphorylation of JAK3” value [1] was “enhanced the phosphorylation of JAK3”. For the same molecule, the IC50 (Daudi) was greater than 10 µM, the IC50 (U937 AML cells) was 0.027 ± 0.004 µM and the “cell fate or phenotypes” value (OCI-LY3 cells) was “did not obviously affect the cell fate or the phenotypes”. The IC50 (Ba/F3) was greater than 10 µM, the “cell cycle arrest” value (U937 cells [2]; PF-06651600 treatment) was “dose-dependent G0/G1 phase cell cycle arrest” and the IC50 (Ba/F3-TEL-JAK1) was greater than 10 µM. For the same molecule, the IC50 (Ba/F3-TEL-JAK2) was greater than 10 µM, the “activation of JAK3 and the downstream signals” value [3] was “potently suppressed the activation of JAK3 and the downstream signals in a dose-dependent manner” and the IC50 (OCI-LY3) was greater than 10 µM. For the same molecule, the IC50 (Jurkat) was greater than 10 µM, the IC50 (HL-60) was greater than 10 µM and the IC50 (MOLT-4) was greater than 10 µM. The “apoptosis” value (U937 cells [4]) was “inducing apoptosis only barely”, the IC50 (Ba/F3-JAK3 (M511I)) was 0.03 ± 0.01 µM and the IC50 (MV4-11) was greater than 10 µM.

In the case of `CCS(=O)(=O)N1CC(CC#N)(n2cc(-c3ncnc4[nH]ccc34)cn2)C1` [Baricitinib], the “antiproliferative activity” value (U937 AML cells) is reported as “micromolar IC50 values” and the “JAK3 kinase inhibition” value (JAK3) is reported as “weakly suppressed the activity of JAK3”.

In the case of “Si-JAK3: Synthetic JAK3 small interfering RNA from RiboBio; si-JAK3: 5′-GCAGACACTTAGCTTGGAA-3′ (chemistry not fully specified)”, the “cell cycle arrest” value (U937 cells [2]; JAK3 siRNA) is reported as “induced G0/G1 phase arrest” and the “activation of JAK3-STAT3/5 signal pathway” value ([3]; JAK3 siRNA for 72 h) is reported as “suppressed activation of JAK3-STAT3/5 signal pathway”.
